Values belong to the compound of their own block, whether it stands above or below them.
Key:
Recombinant human DDR1 = molecular target: T1, Recombinant human DDR1 (Homo sapiens, UniProt Q08345); assay: LanthaScreen Eu Kinase Binding Assay, DDR1; details: recombinant human DDR1 (2.5 nM; aa440-876, GST tag), Kinase Tracer 178 5 nM, time-resolved fluorescence, at least two independent replicates; read-out: DDR1 pIC50 (converted)
T1 construct: Recombinant human DDR1 (2.5 nM; aa440-876 containing a GST tag)
Experimental: (§1) DDR1 and DDR2 Biochemical Assay Method
(§2) The capacity of compounds to bind to DDR1 and DDR2 was quantified using a LanthaScreen Eu Kinase Binding Assay. Recombinant human DDR1 (2.5 nM; aa440-876 containing a GST tag) and DDR2 (1.75 nM; aa427-855 containing a GST tag) were diluted in assay buffer (50 mM HEPES pH7.3, 10 mM MgCl2, 1 mM EGTA and 0.01% Tween) with various concentrations of compound in a 384-well plate and a volume of 5 uL. After a 30-minute incubation at room temperature, 2.5 uL of Eu-anti GST antibody (diluted to 1 nM in assay buffer) plus Kinase Tracer 178 (diluted in assay buffer to 5 nM for DDR1 and 10 nM for DDR2) were added to the plate. Following 60-minute incubation at room temperature, time-resolved fluorescence was measured on a BMG Labtech PHERAstar plate reader. DMSO (1%) and reference compound (1 μM) were used to generate the Max and Min assay signals, respectively. Data was analysed using a four-parameter logistic model to calculate IC50 values, with at least two independent replicates were performed for each compound.

Recombinant human DDR2 = molecular target: T2, Recombinant human DDR2 (Homo sapiens, UniProt Q16832); assay: LanthaScreen Eu Kinase Binding Assay, DDR2; details: recombinant human DDR2 (1.75 nM; aa427-855, GST tag), Kinase Tracer 178 10 nM, time-resolved fluorescence, at least two independent replicates; read-out: DDR2 pIC50 (converted)
T2 construct: DDR2 (1.75 nM; aa427-855 containing a GST tag)
T2 sequence (Q16832 427-855): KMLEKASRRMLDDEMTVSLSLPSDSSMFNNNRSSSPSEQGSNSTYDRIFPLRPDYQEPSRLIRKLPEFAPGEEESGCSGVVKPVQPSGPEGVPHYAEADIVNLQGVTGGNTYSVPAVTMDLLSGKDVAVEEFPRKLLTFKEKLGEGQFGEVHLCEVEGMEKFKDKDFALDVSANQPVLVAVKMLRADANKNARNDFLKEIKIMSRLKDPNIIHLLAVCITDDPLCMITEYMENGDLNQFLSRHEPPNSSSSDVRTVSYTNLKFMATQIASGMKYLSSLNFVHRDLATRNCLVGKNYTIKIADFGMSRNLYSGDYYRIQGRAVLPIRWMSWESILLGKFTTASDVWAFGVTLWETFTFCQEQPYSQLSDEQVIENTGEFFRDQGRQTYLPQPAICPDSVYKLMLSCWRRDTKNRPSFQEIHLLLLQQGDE
Experimental: as §1, §2

T1 sequence (Q08345 440-876 isoform Q08345-2): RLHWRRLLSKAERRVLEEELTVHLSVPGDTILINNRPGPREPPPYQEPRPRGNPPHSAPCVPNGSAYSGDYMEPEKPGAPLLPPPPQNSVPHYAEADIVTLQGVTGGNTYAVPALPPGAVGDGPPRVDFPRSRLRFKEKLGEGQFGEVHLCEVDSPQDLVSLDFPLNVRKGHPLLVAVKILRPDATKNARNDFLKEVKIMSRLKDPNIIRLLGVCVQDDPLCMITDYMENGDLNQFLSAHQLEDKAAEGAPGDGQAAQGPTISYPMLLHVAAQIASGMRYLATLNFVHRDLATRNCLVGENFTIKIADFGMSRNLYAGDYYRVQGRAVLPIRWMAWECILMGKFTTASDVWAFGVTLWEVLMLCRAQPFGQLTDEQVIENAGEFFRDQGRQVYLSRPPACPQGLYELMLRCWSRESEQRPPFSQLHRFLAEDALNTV

SMILES: Cc1ccc(Nc2ccc3c(cnn3C)c2)c2c(=O)n(CC(=O)NCC(F)(F)F)ccc12 [Example 8, 2-[5-methyl-8-[(1-methylindazol-5-yl)amino]-1-oxo-2-isoquinolyl]-N-(2,2,2-trifluoroethyl)acetamide]
IC50 (Recombinant human DDR1): ≥ 1000 nM
IC50 (Recombinant human DDR2): ≥ 1000 nM

SMILES: Cn1ncc2cc(Nc3cccc4ccn(CC(=O)N[C@@H](C5CC5)C(F)(F)F)c(=O)c34)ccc21 [Example 57, N-[(1S)-1-cyclopropyl-2,2,2-trifluoro-ethyl]-2-[8-[(1-methylindazol-5-yl)amino]-1-oxo-2-isoquinolyl]acetamide]
IC50 (Recombinant human DDR1): < 10 nM
IC50 (Recombinant human DDR2): 10 to 100 nM

SMILES: Cn1ncc2cc(Nc3cccc4ccn(CC(=O)N5CCC[C@H]5C(C)(C)O)c(=O)c34)ccc21 [Example 60, 2-[2-[(2S)-2-(1-hydroxy-1-methyl-ethyl)pyrrolidin-1-yl]-2-oxo-ethyl]-8-[(1-methylindazol-5-yl)amino]isoquinolin-1-one]
IC50 (Recombinant human DDR1): 100 to 1000 nM
IC50 (Recombinant human DDR2): ≥ 1000 nM

SMILES: Cn1ncc2cc(Nc3cccc4ccn(CC(=O)Nc5ccncc5)c(=O)c34)ccc21 [Example 26, 2-[8-[(1-methylindazol-5-yl)amino]-1-oxo-2-isoquinolyl]-N-(4-pyridyl)acetamide]
IC50 (Recombinant human DDR1): ≥ 1000 nM
IC50 (Recombinant human DDR2): ≥ 1000 nM

SMILES: Cn1ncc2cc(Nc3cccc4ccn(CC(=O)N5CCCC5)c(=O)c34)ccc21 [Example 94, 8-[(1-methyl-1H-indazol-5-yl)amino]-2-[2-oxo-2-(pyrrolidin-1-yl)ethyl]-1,2-dihydroisoquinolin-1-one]
IC50 (Recombinant human DDR1): 100 to 1000 nM
IC50 (Recombinant human DDR2): ≥ 1000 nM

SMILES: Cn1ncc2cc(Nc3cccc4ccn(CC(=O)N5CCOC(C(F)(F)F)C5)c(=O)c34)ccc21 (stereo not shown) [Example 43, 8-[(1-methylindazol-5-yl)aminio]-2-[2-oxo-2-[2-(trifluoromethyl)morpholin-4-yl]ethyl]isoquinolin-1-one]
IC50 (Recombinant human DDR1): 10 to 100 nM
IC50 (Recombinant human DDR2): ≥ 1000 nM

SMILES: CC[C@H](NC(=O)Cn1ccc2cccc(Nc3ccc4c(cnn4C)c3)c2c1=O)C(F)(F)F [Example 45, 2-[8-[(1-methylindazol-5-yl)amino]-1-oxo-2-isoquinolyl]-N-[(1S)-1-(trifluoromethyl)propyl]acetamide]
IC50 (Recombinant human DDR1): 10 to 100 nM
IC50 (Recombinant human DDR2): 10 to 100 nM

SMILES: CN(C)Cc1ccc(NC(=O)Cn2ccc3cccc(Nc4ccc5c(cnn5C)c4)c3c2=O)cc1C(F)(F)F [Example 112, N-[4-[(dimethylamino)methyl]-3-(trifluoromethyl)phenyl]-2-[8-[(1-methylindazol-5-yl)amino]-1-oxo-2-isoquinolyl]acetamide]
IC50 (Recombinant human DDR1): < 10 nM
IC50 (Recombinant human DDR2): 10 to 100 nM

SMILES: Cn1ncc2cc(Nc3cccc4ccn(CC(=O)Nc5cccnc5)c(=O)c34)ccc21 [Example 24, 2-[8-[(1-methylindazol-5-yl)amino]-1-oxo-2-isoquinolyl]-N-(3-pyridyl)acetamide]
IC50 (Recombinant human DDR1): 100 to 1000 nM
IC50 (Recombinant human DDR2): ≥ 1000 nM

SMILES: O=C(Cn1ccc2cccc(Nc3ccc4cn[nH]c4c3)c2c1=O)NCC(F)(F)F [Example 2]
IC50 (Recombinant human DDR1): 10 to 100 nM
IC50 (Recombinant human DDR2): ≥ 1000 nM

SMILES: Cn1ncc2cc(Nc3cccc4ccn(CC(=O)NC5CC5)c(=O)c34)ccc21 [Example 17, N-cyclopropyl-2-[8-[(1-methylindazol-5-yl)amino]-1-oxo-2-isoquinolyl]acetamide]
IC50 (Recombinant human DDR1): 100 to 1000 nM
IC50 (Recombinant human DDR2): ≥ 1000 nM

SMILES: Cn1ncc2cc(Nc3cccc4ccn(CC(=O)Nc5cccc(C(C)(C)O)c5)c(=O)c34)ccc21 [Example 38, N-[3-(1-hydroxy-1-methyl-ethyl)phenyl]-2-[8-[(1-methylindazol-5-yl)amino]-1-oxo-2-isoquinolyl]acetamide]
IC50 (Recombinant human DDR1): < 10 nM
IC50 (Recombinant human DDR2): 10 to 100 nM

SMILES: Cn1ncc2cc(Nc3cccc4ccn(CC(=O)N5CCC[C@H]5C(F)F)c(=O)c34)ccc21 [Example 131, 2-[2-[(2S)-2-(difluoromethyl)pyrrolidin-1-yl]-2-oxo-ethyl]-8-[(1-methylindazol-5-yl)amino]isoquinolin-1-one]
IC50 (Recombinant human DDR1): < 10 nM
IC50 (Recombinant human DDR2): 10 to 100 nM

SMILES: COc1cncc(NC(=O)Cn2ccc3cccc(Nc4ccc5c(cnn5C)c4)c3c2=O)c1 [Example 56, N-(5-methoxy-3-pyridyl)-2-[8-[(1-methylindazol-5-yl)amino]-1-oxo-2-isoquinolyl]acetamide]
IC50 (Recombinant human DDR1): 10 to 100 nM
IC50 (Recombinant human DDR2): 10 to 100 nM

SMILES: Cn1ncc2cc(Nc3cccc4ccn(CC(=O)Nc5cc(C(F)(F)F)no5)c(=O)c34)ccc21 [Example 48, 2-[8-[(1-methylindazol-5-yl)amino]-1-oxo-2-isoquinolyl]-N-[3-(trifluoromethyl)isoxazol-5-yl]acetamide]
IC50 (Recombinant human DDR1): 10 to 100 nM
IC50 (Recombinant human DDR2): 10 to 100 nM

SMILES: Cn1ncc2cc(Nc3cccc4ccn(CC(=O)NC5CCOCC5)c(=O)c34)ccc21 [Example 15, 2-[8-[(1-methylindazol-5-yl)amino]-1-oxo-2-isoquinolyl]-N-tetrahydropyran-4-yl-acetamide]
IC50 (Recombinant human DDR1): 100 to 1000 nM
IC50 (Recombinant human DDR2): ≥ 1000 nM

SMILES: Cn1ccnc1NC(=O)Cn1ccc2cccc(Nc3ccc4c(cnn4C)c3)c2c1=O [Example 77, N-(1-methylimidazol-2-yl)-2-[8-[(1-methylindazol-5-yl)amino]-1-oxo-2-isoquinolyl]acetamide]
IC50 (Recombinant human DDR1): ≥ 1000 nM
IC50 (Recombinant human DDR2): ≥ 1000 nM

SMILES: Cn1ncc2cc(Nc3cccc4ccn(CC(=O)N5CCC[C@H]5CF)c(=O)c34)ccc21 [Example 136, 2-[2-[(2S)-2-(fluoromethyl)pyrrolidin-1-yl]-2-oxo-ethyl]-8-[(1-methylindazol-5-yl)amino]isoquinolin-1-one]
IC50 (Recombinant human DDR1): < 10 nM
IC50 (Recombinant human DDR2): 10 to 100 nM

Continued, values first:

IC50 (Recombinant human DDR1): < 10 nM
IC50 (Recombinant human DDR2): ≥ 1000 nM
SMILES: Cn1ncc2cc(Nc3cccc4ccn(CC(=O)Nc5ccc(C(F)(F)F)cc5)c(=O)c34)ccc21 [Example 30, 2-[8-[(1-methylindazol-5-yl)amino]-1-oxo-2-isoquinolyl]-N-[4-(trifluoromethyl)phenyl]acetamide]

IC50 (Recombinant human DDR1): 10 to 100 nM
IC50 (Recombinant human DDR2): 100 to 1000 nM
SMILES: CN(C)Cc1cccc(NC(=O)Cn2ccc3cccc(Nc4ccc5c(cnn5C)c4)c3c2=O)c1 [Example 104, N-{3-[(dimethylamino)methyl]phenyl}-2-{8-[(1-methyl-1H-indazol-5-yl)amino]-1-oxo-1,2-dihydroisoquinolin-2-yl}acetamide]

IC50 (Recombinant human DDR1): 10 to 100 nM
IC50 (Recombinant human DDR2): 100 to 1000 nM
SMILES: Cc1cn(-c2cc(NC(=O)Cn3ccc4cccc(Nc5ccc6c(cnn6C)c5)c4c3=O)cc(C(F)(F)F)c2)cn1 [Example 79, N-[3-(4-methylimidazol-1-yl)-5-(trifluoromethyl)phenyl]-2-[8-[(1-methylindazol-5-yl)amino]-1-oxo-2-isoquinolyl]acetamide]

IC50 (Recombinant human DDR1): 10 to 100 nM
IC50 (Recombinant human DDR2): 100 to 1000 nM
SMILES: Cn1ncc2cc(Nc3cccc4ccn(CC(=O)Nc5ccon5)c(=O)c34)ccc21 [Example 74, N-isoxazol-3-yl-2-[8-[(1-methylindazol-5-yl)amino]-1-oxo-2-isoquinolyl]acetamide]

IC50 (Recombinant human DDR1): 10 to 100 nM
IC50 (Recombinant human DDR2): 10 to 100 nM
SMILES: COC(=O)c1cncc(NC(=O)Cn2ccc3cccc(Nc4ccc5c(cnn5C)c4)c3c2=O)c1 [Example 63]

IC50 (Recombinant human DDR1): 10 to 100 nM
IC50 (Recombinant human DDR2): 100 to 1000 nM
SMILES: Cn1ncc2cc(Nc3cccc4ccn(CC(=O)NC5(C(F)(F)F)CCCC5)c(=O)c34)ccc21 [Example 42, 2-[8-[(1-methylindazol-5-yl)amino]-1-oxo-2-isoquinolyl]-N-[1-(trifluoromethyl)cyclopentyl]acetamide]

IC50 (Recombinant human DDR1): 10 to 100 nM
IC50 (Recombinant human DDR2): 10 to 100 nM
SMILES: Cc1n[nH]c2cc(Nc3cccc4ccn(CC(=O)Nc5cnoc5)c(=O)c34)ccc12 [Example 158, N-isoxazol-4-yl-2-[8-[(3-methyl-1H-indazol-6-yl)amino]-1-oxo-2-isoquinolyl]acetamide]

IC50 (Recombinant human DDR1): 100 to 1000 nM
IC50 (Recombinant human DDR2): 100 to 1000 nM
SMILES: Cn1ncc2cc(Nc3cccc4ccn(CC(=O)N5CCOCC5)c(=O)c34)ccc21 [Example 11]

IC50 (Recombinant human DDR1): ≥ 1000 nM
IC50 (Recombinant human DDR2): ≥ 1000 nM
SMILES: CN1CCC(NC(=O)Cn2ccc3cccc(Nc4ccc5c(cnn5C)c4)c3c2=O)CC1 [Example 18, 2-[8-[(1-methylindazol-5-y)amino]-1-oxo-2-isoquinolyl]-N-(1-methyl-4-piperidyl)acetamide]

IC50 (Recombinant human DDR1): 10 to 100 nM
IC50 (Recombinant human DDR2): 10 to 100 nM
SMILES: CC(C)[C@H](NC(=O)Cn1ccc2cccc(Nc3ccc4c(cnn4C)c3)c2c1=O)C(F)(F)F [Example 46, 2-[8-[(1-methylindazol-5-yl)amino]-1-oxo-2-isoquinolyl]-N-[(S)-2-methyl-1-(trifluoromethyl)propyl]acetamide]

IC50 (Recombinant human DDR1): 10 to 100 nM
IC50 (Recombinant human DDR2): 100 to 1000 nM
SMILES: Cn1ncc2cc(Nc3cccc4ccn(CC(=O)NCC(F)F)c(=O)c34)ccc21 [Example 10]
